Experimental data taken from US20240139290A1, “METHODS OF TREATING A CARDIOVASCULAR ISCHEMIC EVENT” (Radius Health, Inc., priority 2021, published 2024).
“Also recorded” adds a separate entry of the source.

What was measured:
ERK = test: Immunoblot of phospho-ERK in HL-1 cardiomyocytes (normoxia or simulated ischemia + 10 min reoxygenation); assay type: cell-based, murine; conditions: for phospho-ERK expression with co-administration of PD98059: 5 μM PD98059, control, abaloparatide- and PTHrP-treated groups
Description: (§1) At 24 h after the onset of treatment, cells underwent 2 h of SI+10 min reoxygenation, while additional time- and treatment-matched normoxic cultures served as controls (n=3 independent replicates per group). At 10 min post-reoxygenation, cells were harvested and lysed in RIPA buffer containing 2 protease and phosphatase inhibitors. The lysates were centrifuged at 14,000×g for 15 min, and the resultant supernatant was collected and probed for the expression of ERK (total and phosphorylated: antibodies from Cell Signaling Technology Inc., Danvers, MA, USA), PI3 kinase/Akt (total and phosphorylated: Cell Signaling Technology Inc., Danvers, MA, USA) and GAPDH (Sigma Aldrich Inc., St. Louis, MO, USA) using standard methods Immunoreactive bands were identified by incubation with horseradish peroxidase (HRP)-conjugated secondary antibody, visualized using x-ray film, and quantified using the NIH ImageJ software. […] At 24 h after the onset of treatment, cells underwent either 2 h of SI+24 h reoxygenation or a time-matched period of normoxia (n=2 independent replicates per group). At 24 h following relief of SI, cell viability was quantified using the MTT assay as described in Example 1.
HL-1 cardiomyocytes were treated as described in Example 5, but were harvested at 10 minutes post-reoxygenation, lysed, and probed for phospho- and total ERK expression as detailed in Example 5.

HL-1 cardiomyocytes [1] = conditions: doxorubicin 2.5 μM for 24 hours; previously shown; cited from earlier work
[2] = clinical studies; cited from earlier work
[3] = Obaidi et al. 2010; cited from earlier work
[4] = human, in vivo, sc; cited from earlier work
HL-1 cardiomyocytes [5] = test: HL-1 cardiomyocyte viability (MTT assay) under normoxia or simulated ischemia-reperfusion; assay type: cell-based, murine
Description: HL-1 cardiomyocytes were grown to ˜80% confluence in 95% room air/5% CO2 at 37° C. in Claycomb medium supplemented with fetal bovine serum (10%), L-glutamine (2 mM), norepinephrine (0.1 mM), penicillin (100 U/mL) and streptomycin (100 μg/mL). The cardiomyocytes were then incubated for 24 hours with abaloparatide (0.1 nM, 1.0 nM, 10 nM, 100 nM) or vehicle control. At 24 hours after the onset of incubation, the cells were subjected to 2 hours of simulated ischemia (achieved by depletion of oxygen and nutrients), followed by 24 hours of reoxygenation. During simulated ischemia, Claycomb medium containing drug/placebo was replaced with drug-free hypoxia buffer at pH 6.6 (composed of NaCl ([…]), KCl (8 mM), KH2PO4 (1.2 mM), 1.25 mM MgSO4 (1.25 mM), CaCl2 (1.2 mM), NaHCO3 (6.25 mM), HEPES (20 mM), glucose (5.5 mM), 2-deoxy-D-glucose (20 mM), sodium lactate (5 mM): all ingredients from Sigma Aldrich, St. Louis, MO, USA) and the culture plates were sealed in a hermetic chamber with GasPak EZ Gas Generating Sachets (BD Biosciences, San Jose, CA, USA). Reoxygenation was achieved by removing the plates from the sealed chamber and exchanging the hypoxia buffer with serum-free Claycomb medium. Additional time- and treatment-matched normoxic cultures served as controls (n=4 independent replicates per group). Cell viability was quantified using the 3-(4,5-dimethythiazol-2-yl)-2,5-diphenyl tetrazolium bromide (MTT) assay.
At 24 hours after the onset of incubation, the cells were subjected to 2 hours of simulated ischemia (achieved by depletion of oxygen and nutrients), followed by 24 hours of reoxygenation. Additional time- and treatment-matched normoxic cultures served as controls. Cell viability was quantified using the 3-(4,5-dimethythiazol-2-yl)-2,5-diphenyl tetrazolium bromide (MTT) assay.
as §1
Twenty-four hours after the onset of treatment, cells underwent 2 hours of simulated ischemia followed by 24 hours of reoxygenation. Additional time- and treatment-matched normoxic cultures served as controls. Cell viability was quantified using the MTT assay.

Akt = test: Immunoblot of phospho-Akt in HL-1 cardiomyocytes (normoxia or simulated ischemia + 10 min reoxygenation); assay type: cell-based, murine; conditions: 2 h simulated ischemia + 10 min reoxygenation; 10 nM; vs vehicle; Example 3, FIG. 3B
Description: as §1

[6] = simulated ischemia + 10 min reoxygenation, Example 6, FIG. 6B

COc1cccc(-c2cc(=O)c3ccccc3o2)c1N [PD98059]
phospho-ERK expression with co-administration of PD98059 (ERK; [6]): attenuated

COc1cccc2c1C(=O)c1c(O)c3c(c(O)c1C2=O)C[C@@](O)(C(=O)CO)C[C@@H]3O[C@H]1C[C@H](N)[C@H](O)[C@H](C)O1 [doxorubicin]
HL-1 cardiomyocytes killed (HL-1 cardiomyocytes [1]): ~50%

CC[C@H](C)[C@H](NC(=O)[C@H](CCC(=O)O)NC(=O)[C@H](CO)NC(=O)[C@@H](NC(=O)[C@@H](N)CO)C(C)C)C(=O)N[C@@H](CCC(N)=O)C(=O)N[C@@H](CC(C)C)C(=O)N[C@@H](CCSC)C(=O)N[C@@H](Cc1cnc[nH]1)C(=O)N[C@@H](CC(N)=O)C(=O)N[C@@H](CC(C)C)C(=O)NCC(=O)N[C@@H](CCCCN)C(=O)N[C@@H](Cc1cnc[nH]1)C(=O)N[C@@H](CC(C)C)C(=O)N[C@@H](CC(N)=O)C(=O)N[C@@H](CO)C(=O)N[C@@H](CCSC)C(=O)N[C@@H](CCC(=O)O)C(=O)N[C@@H](CCCN=C(N)N)C(=O)N[C@H](C(=O)N[C@@H](CCC(=O)O)C(=O)N[C@@H](Cc1c[nH]c2ccccc12)C(=O)N[C@@H](CC(C)C)C(=O)N[C@@H](CCCN=C(N)N)C(=O)N[C@@H](CCCCN)C(=O)N[C@@H](CCCCN)C(=O)N[C@@H](CC(C)C)C(=O)N[C@@H](CCC(N)=O)C(=O)N[C@@H](CC(=O)O)C(=O)N[C@H](C(=O)N[C@@H](Cc1cnc[nH]1)C(=O)N[C@@H](CC(N)=O)C(=O)N[C@@H](Cc1ccccc1)C(=O)O)C(C)C)C(C)C [teriparatide]
orthostatic hypotension [2]: transient episodes of symptomatic orthostatic hypotension | palpitations [2]: palpitations | tachycardia [2]: tachycardia

abaloparatide
expression of phospho-ERK (normalized to total ERK) (ERK; 2 h simulated ischemia + 10 min reoxygenation, 10 nM, vs vehicle, Example 3, FIG. 3C): augmented expression of phospho-ERK | expression of phospho-ERK vs vehicle-controls (ERK; simulated ischemia + 10 min reoxygenation, 10 nM, Example 6, FIG. 6B): augmented expression phospho-ERK | phospho-ERK expression with co-administration of PD98059 (ERK; [6]): attenuated | anabolic activity [3]: potent anabolic activity | bone resorption [3]: decreased bone resorption | calcium-mobilizing potential [3]: less calcium-mobilizing potential | heart rate [4]: modest and transient increases in heart rate | heart rate relative to placebo [4]: transient increases in heart rate | incidence of palpitations relative to placebo [4]: higher incidences of palpitations | supine blood pressure [4]: decreases in supine blood pressure | HL-1 cell viability vs vehicle-controls (HL-1 cardiomyocytes [5]; 2 h simulated ischemia + 24 h reoxygenation, 10 nM, Example 5, FIG. 5B): viability was better maintained | HL-1 cell viability vs vehicle-controls (HL-1 cardiomyocytes [5]; 2 h simulated ischemia + 24 h reoxygenation, 10 and 100 nM, Example 4, FIG. 4B): viability was better-maintained | HL-1 cell viability vs vehicle control (HL-1 cardiomyocytes [5]; 2 h simulated ischemia + 24 h reoxygenation, abaloparatide 0.1-100 nM, 24 h pre-incubation, Example 1, FIG. 1B): viability was better-maintained | efficacy of abaloparatide relative to PTHrP(1-36) (HL-1 cardiomyocytes [5]; in vitro model of ischemia-reperfusion injury, summary statement): slightly but significantly greater than that of PTHrP(1-36) | viability of HL-1 cardiomyocyte cells (HL-1 cardiomyocytes [5]; in vitro model of lethal ischemia-reperfusion injury, summary statement): enhancement in viability | HL-1 cell viability (HL-1 cardiomyocytes [5]; normoxic conditions, abaloparatide 0.1-100 nM, 24 h incubation, Example 1, FIG. 1A): no effect on HL-1 cell viability | protective effect on viability with co-administration of PD98059 (HL-1 cardiomyocytes [5]; simulated ischemia-reperfusion, 10 nM peptide + 5 μM PD98059, Example 5, FIG. 5B): attenuated by co-administration of PD98059; also recorded: attenuated the protective effect | viability with 10 nM abaloparatide compared with other groups (HL-1 cardiomyocytes [5]; simulated ischemia-reperfusion, p<0.05 between groups, Example 4, FIG. 4B): greater than that achieved with 100 nM abaloparatide and 10 nM PTHrP(1-36) | concentration with greatest efficacy on viability (HL-1 cardiomyocytes [5]; simulated ischemia-reperfusion, tested 0.1, 1.0, 10, 100 nM, Example 1, FIG. 1B): 10 nM | HL-1 cardiomyocyte death caused by simulated ischemia-reperfusion (HL-1 cardiomyocytes [5]; summary statement on Examples 1-3): attenuated HL-1 cardiomyocyte death | expression of phospho-Akt (normalized to GAPDH) (Akt): better preservation of phospho-Akt
